Laboratory results reported in paper PMC12706802, “Ortho-Hydroxyanilides: Slow-Acting, Selective Histone Deacetylase 1/2 Inhibitors Suitable for Photocaging Applications” (ACS Pharmacology & Translational Science, 2025).
Where two headings read alike, the source gives them in different places.

What was measured:
MDA-MB-231 cells [1] = test: Annexin V/PI apoptosis assay; conditions: MDA-MB-231, 10 μM, 48 h
MDA-MB-231 cells [2] = test: MTT cell viability (antiproliferative) assay; format: cell-based; conditions: Homo sapiens
Experimental: (§1) To evaluate the cytotoxicity of the selected HDAC inhibitors, compounds were tested for their antiproliferative activity against MV-3 and MDA-MB-231 cells using the MTT assay. […] MTT (3-(4,5-dimethylthiazol-2-yl)-2,5-diphenyltetrazolium bromide; Catalog# A2231; BioChemica, Applichem GmbH, Darmstadt, Germany) was utilized to measure the antiproliferative effect. Depending on the incubation time, 3000 MV-3 cells (72 h), 2000 MV-3 cells (96 h) or 1000 MV-3 cells (120 h) per well were seeded in 96-well plates (Starlab GmbH, Hamburg, Germany) with each well containing 199 μL of volume. […] Next, predilutions of the test compounds were prepared in DMSO. […] Subsequently, cells were treated with 1.0 μL of the dilution series of the test compounds. […] After removing the supernatant, formazan was solubilized in 200.0 μL DMSO. The absorbance was measured at 570 nm with background subtraction at 690 nm using a Multiskan microplate photometer (Thermo Fisher Scientific, Waltham, MA, USA). The obtained data were normalized to PBS, considering 100% viability.

MV-3 cells = test: MTT cell viability (antiproliferative) assay; format: cell-based, human; conditions: for EC50: Homo sapiens, read-out: MV-3 EC50 (MTT); for viability reduction, MV-3 (MTT): at 15 μM, 72 h
Experimental: as §1

HDAC1 = HDAC1 (Homo sapiens, UniProt Q13547); test: Binding kinetics via the progression method (continuous HDAC assay); format: biochemical; set-up: purchased BPS Bioscience Inc. #50051; conditions: 45 min, 28 °C
Experimental: To this end, HDAC1, the substrate, and trypsin were incubated directly with the inhibitor at various concentrations and fluorescence was recorded continuously for 45 min. […] By plotting the ratio of the deacetylation rate in the presence of the inhibitor (v i) to the rate in absence of any inhibitor (v 0) as a function of the inhibitor concentration and fitting the data to an appropriate model (eq 3), the equilibrium […] K i was determined (Figure ).
To investigate the binding mode of both compounds, we performed molecular docking studies. Specifically, ST13 was docked into HDAC2 (PDB ID: 3MAX), a cocrystal structure containing an HDAC inhibitor with an ortho-aminoanilide ZBG and a phenyl group as the FPU.
Appropriate test compound concentrations were chosen based on the previously determined IC50 values. […] Each progression curve was fitted to either obtain the apparent first-order rate constant k obs (eq ) or the linear conversion rates v i and v 0 (eq ). For fast-on/fast-off inhibitors, the ratio v i/v 0 was plotted against the corresponding inhibitor concentrations.

HEK293 cells = test: CellTiter-Glo 2.0 cell viability assay; format: cell-based; conditions: Homo sapiens; for EC50: 120 h incubation, nontumorigenic cell line
Experimental: (§2) To evaluate the cytotoxicity of the selected HDAC inhibitors, compounds were tested for their antiproliferative activity against MV-3 and MDA-MB-231 cells using the MTT assay. […] (Promega; Walldorf, Germany) was utilized to assess the antiproliferative effects. MM.1S and HEK293 cells were seeded at a density of 1000 cells per well in 384-well plates, with each well containing 22.5 μL of volume. […] Subsequently, cells were stimulated with 2.5 μL of the dilution series of the test compounds. Following compound exposure, the plates were incubated for 120 h in the incubator set at 37 °C with 5% CO2. Post 120 h of incubation, 25.0 μL of CellTiter-Glo reagent was dispensed into each well and the plates were incubated at the room temperature for 10 min. Luminescence was then measured using a Spark multimode microplate reader (Tecan Group AG, Maennedorf, Swiss). Data were normalized against controls: wells treated with 0.5% DMSO were set as 100% viable, while those treated with 10% DMSO were considered completely nonviable (0% viability).

MM.1S cells = test: CellTiter-Glo 2.0 cell viability assay; format: cell-based; conditions: Homo sapiens, MM1.S; 120 h incubation
Experimental: as §2

HDACs in MM.1S cells = test: HDAC whole cell inhibition assay; conditions: Homo sapiens, MM1.S, read-out: whole-cell HDAC inhibition EC50, MM.1S
HDACs in MV-3 cells = test: HDAC whole cell inhibition assay; conditions: Homo sapiens, MV-3, light or radiation study, 18 h, read-out: whole-cell HDAC inhibition EC50, MV-3
Ac-α-tubulin (HDAC6) = test: Immunoblot analysis of MV-3 cell lysates; format: cell-based, human; conditions: MV-3, 5 μM, 24–72 h
[3] = MDA-MB-231, light or radiation study, incubation time 120 h, no irradiation
[4] = MDA-MB-231, incubation time 96 h
[5] = MV-3, light or radiation study, incubation time 120 h, no irradiation

Chain of HDAC1 (Q13547 whole entry): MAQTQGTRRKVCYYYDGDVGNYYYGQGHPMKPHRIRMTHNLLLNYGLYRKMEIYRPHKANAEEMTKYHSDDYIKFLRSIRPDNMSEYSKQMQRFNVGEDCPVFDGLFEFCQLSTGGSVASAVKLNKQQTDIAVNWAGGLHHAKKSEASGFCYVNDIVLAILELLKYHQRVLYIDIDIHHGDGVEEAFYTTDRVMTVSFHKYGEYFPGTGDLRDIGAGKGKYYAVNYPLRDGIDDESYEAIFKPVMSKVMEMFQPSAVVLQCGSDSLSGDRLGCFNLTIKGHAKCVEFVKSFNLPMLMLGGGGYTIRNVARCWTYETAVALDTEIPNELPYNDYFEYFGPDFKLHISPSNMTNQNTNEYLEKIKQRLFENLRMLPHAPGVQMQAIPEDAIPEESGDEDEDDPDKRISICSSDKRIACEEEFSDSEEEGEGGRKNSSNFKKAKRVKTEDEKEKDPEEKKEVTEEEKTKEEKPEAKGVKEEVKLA

| Compound | apoptosis induction (annexin V/PI) (MDA-MB-231 cells [1]) | EC50 (MDA-MB-231 cells [2]; [3]) [nM] | EC50 (MDA-MB-231 cells [2]; [4]) [nM] | EC50 (MV-3 cells; [5]) [nM] | EC50 (MV-3 cells; MV-3, incubation time 96 h) [nM] | viability reduction, MV-3 (MTT) (MV-3 cells) [%] | binding mechanism at HDAC1 (progression curves, kobs versus inhibitor concentration) (HDAC1) | EC50 (HEK293 cells) [nM] | EC50 (MM.1S cells) [nM] | EC50 (HDACs in MM.1S cells) [nM] | EC50 (HDACs in MV-3 cells) [nM] | acetylation level of α-tubulin (immunoblot) (Ac-α-tubulin (HDAC6)) | inhibition at 5 µM (HEK293 cells; at 5.00 μM, 120 h, read-out: inhibition at the stated concentration, HEK293 (CellTiter-Glo)) [%] |
| --- | --- | --- | --- | --- | --- | --- | --- | --- | --- | --- | --- | --- | --- |
| CC(=O)Nc1ccc(C(=O)Nc2cc(-c3cccs3)ccc2N)cc1 [Cpd-60, reference compound] | significantly induced apoptosis | 890 ± 250 | 3210 ± 1010 | 370 ± 40 | 2340 ± 790 | < 25 | induced fit slow-binding mechanism | 1500 | 111 | 111 ± 38 | 97 ± 26 | absence of HDAC6 inhibition |  |
| CC(=O)Nc1ccc(C(=O)Nc2cc(-c3ccccc3)ccc2O)cc1 [ST13, 4-Acetamido-N-(4-hydroxy-[1,1′-biphenyl]-3-yl)-benzamide] | significantly induced apoptosis | 4870 ± 860 | 13900 ± 3400 | 2770 ± 880 | 7940 ± 1360 | < 25 | induced fit slow-binding mechanism | > 5000 | 198 | 637 ± 158 | 311 ± 47 | absence of HDAC6 inhibition | < 25 |
